In the NIST ThermoML archive (doi:10.1016/j.fluid.2017.09.010):
Numbers after ± are expanded uncertainties. Each block holds one compound with its values, some of them ahead of it.

Details: Liquid, Ebulliometric method (Recirculating still)

vapor or sublimation pressure (355.4 K): 101 ± 1 kPa
SMILES: CC(C)O [propan-2-ol]

vapor or sublimation pressure (373 K): 101 ± 5 kPa
SMILES: O [water]

vapor or sublimation pressure (361.8 K): 101 ± 1 kPa
SMILES: CC(=O)OC(C)C [1-methylethyl ethanoate]

vapor or sublimation pressure (374.2 K): 101 ± 1 kPa
SMILES: CCCOC(C)=O [propyl ethanoate]
